Laboratory results reported in patent US5916869A, “Method of treating birds in ovo” (North Carolina State University, priority 1997, dated 1999).

What was measured:
[1] = Broiler chick body weight after in ovo administration; type: in vivo, broiler chicks
Description: (§1) To test this hypothesis, the following study was carried out: Four hundred and sixty eggs were randomly divided into two groups and administered either saline (control) or PYY (600 μg/kg egg weight) into the air cell on day 18 of incubation. At hatching 420 chicks were vent sexed, wing-banded, weighed and randomly placed by treatment and sex into 60 pens of 7 chicks each. Pens were equipped with chick founts, nipple drinkers, and feeders. […] The light cycle was 23 light and 1 dark for the entire experiment.
(§2) Chicks were fed a starter diet (22% CP) for the first 3 weeks and a grower diet (20% CP) for the remaining 3 weeks. Individual chicks were weighed weekly and pen feed consumption recorded as feeders were refilled. At week six, all birds were weighed and euthanized with CO2. Data were statistically analyzed using the General Linear Models Procedure of SAS (1988) with treatment, sex, room and pen as the main effects. Differences were considered significant at P<0.05.
(§3) Weight gain and Feed Conversion Ratio (FCR) were evaluated in broiler chicks treated in ovo with PYY as described in Example 1. Although there were sex differences (P<0.05) for many of the growth and performance parameters, there were no sex x treatment interactions (P<0.05). Therefore, data from both sexes was combined.

[2] = Broiler chick Feed Conversion Ratio (FCR) after in ovo administration; type: in vivo, broiler chicks
Description: as §1, §2, §3

[3] = in vivo
Description: as §1, §2, §3

[4] = tested on: jejunal glucose transport; conditions: cited from earlier work; for glucose absorption: young growing mice, exogenous administration

Row | Substance | body weights vs saline control (FIG. 1) ([1]; hatch and week 1 of age, in ovo injection) | body weight, heavier than chicks from control eggs ([1]; week 1, 600 μg/kg egg weight into air cell on day 18 of incubation, vs saline) [%] | broiler weights vs control ([1]; weeks 3 and 6, data not shown) | FCR, less than chicks from saline treated eggs ([2]; one week of age, 600 μg/kg egg weight in ovo) [%] | FCR vs saline control (FIG. 2) ([2]; week 1, in ovo injection) | FCR vs control ([2]; weeks 3 and 6, data not shown) | Mortality [3] | Mortality, difference between treatments [3] | active jejunal glucose transport ([4]; mice treated with PYY) | intestinal energy expenditure ([4]; mice treated with PYY) | passive transport rates ([4]; mice treated with PYY) | glucose absorption [4]
1 | PYY: 36 amino acid peptide hormone produced by L type endocrine cells, member of the pancreatic polypeptide family; term covers PYY-I and PYY-II [Peptide YY] | significantly (P<0.05) greater | 2.7 | No statistical differences | 3.99 | significantly lower (P<0.05) | No differences | less than 1% | did not differ significantly between treatments | increase in active jejunal glucose transport | without any increase in intestinal energy expenditure | without a corresponding increase in passive transport rates | increases glucose absorption
2 | epidermal growth factor (NSDSECPLSHDGYCLHDGVCMYIEALDKYACNCVVGYIGERCQYRDLKWWELR; Epidermal growth factor; UniProt P01133 971-1023, looked up) [EGF, epidermal growth factor, peptide administered in ovo as comparison treatment] | – | – | – | – | – | – | – | – | – | – | – | increases glucose absorption
